In BigSolDB 2.1:

CC(C)(C)OC(=O)N[C@@H](CC(N)=O)C(=O)O
solubility (mole fraction)
Details	283.15 K	288.15 K	293.15 K	298.15 K	303.15 K	308.15 K	313.15 K	318.15 K	323.15 K
in 2-butanone	0.000534	0.000543	0.000641	0.000673	0.000804	0.000879	0.00109	0.00131	0.00171
in acetone	0.000897	0.000927	0.0012	0.00139	0.00166	0.00201	0.00222	0.00253	0.00308
in acetonitrile	0.000136	0.000177	0.000195	0.000257	0.000313	0.000398	0.000499	0.000665	0.000856
in ethanol	0.00213	0.00253	0.0031	0.00375	0.00454	0.00533	0.00632	0.00776	0.0091
in isobutanol	0.000686	0.000865	0.000918	0.00106	0.0014	0.0018	0.00236	0.00324	0.00421
in isopropanol	0.00136	0.00169	0.00204	0.00252	0.00317	0.00372	0.00433	0.00528	0.00658
in methanol	0.00641	0.0073	0.00842	0.00982	0.0111	0.013	0.0153	0.0172	0.022
in n-butanol	0.000791	0.000839	0.00113	0.00131	0.00172	0.00189	0.00241	0.003	0.00377
in n-pentanol	0.000561	0.000787	0.00102	0.00154	0.00178	0.00227	0.00266	0.00302	0.00364
in n-propanol	0.00105	0.00145	0.00176	0.00195	0.0026	0.00323	0.00386	0.00498	0.00612
in sec-butanol	0.00103	0.00143	0.0017	0.00227	0.00245	0.00299	0.00406	0.00505	0.00619
in water	0.000247	0.000288	0.000359	0.000452	0.000492	0.000617	0.00076	0.000834	0.00107
